# Source: patent EP4567034A1 (Korea Institute of Science and Technology, priority 2022, dated 2024)
# Tested on: blood lymphocyte count
# Experiment: Decrease in blood lymphocyte count in normal rats after oral administration
# Assay type: in vivo, rat
# Conditions: 10 mg/kg for the compounds, within 5 hours after drug administration, percentage based on count before administration
# Protocol: In order to confirm the effect of administration of the four compounds selected from Experimental Example 1, Compounds 13, 62, 64, and 66, on the decrease in the blood lymphocyte count in rodents in vivo, blood was collected before and after compound administration, and the decrease in the blood lymphocyte count over time was measured using an automatic blood counter, and the results are shown in FIG. 1.
# Specifically, 5-week-old male rats (rat, wister, 160-180 g) were acclimated in a temperature- and humidity-controlled breeding room, and the four selected compounds were dissolved in 5% DMSO and 10% Kolliphor HS15 aqueous solution and orally administered at a dose of 10 mg/kg. Blood was collected from the tail vein with a syringe during inhalation anesthesia with 4% isoflurane and transferred to an EDTA-coated tube. The lymphocyte count was measured from the collected blood using an automatic blood counter. As a positive control group, rats administered with fingolimod, a known S1P1 receptor modulator, were used.
# As in the positive control group, fingolimod-administered group, it was confirmed that the group administered with the compounds of the Examples within 5 hours after drug administration induced a decrease in the lymphocyte count by 50% or less.
compound,measurement,value
CCCCCCCCc1ccc(CCC(N)(CO)CO)cc1 [fingolimod],decrease in the lymphocyte count,≤ 50%
